In patent publication US11034725B2, “Compositions and methods for treating cardiovascular disease” (Genentech, Inc., priority 2016, dated 2021):
Where two headings read alike, the source gives them in different places. Numbered stars: 1 amine (or outer) side, 2 acyl side, 3 side chain; on linkers, the order of the positions; unused ones are H or OH. Square brackets hold non-standard residues; d marks the D form. Peptide text beside a SMILES is read from it. * marks the point of attachment. Propanoyl(3-(4-MeO-Ph)) = COc1ccc(CCC(=O)*)cc1; Benzoyl(4-Ph) = O=C(c1ccc(-c2ccccc2)cc1)*; Desaminotyrosyl = O=C(CCc1ccc(O)cc1)*; Pentanoyl(5-Ph) = O=C(CCCCc1ccccc1)*; X17 = O=C([C@H]1C[C@@H]1c1cccnc1)*; hArg = N=C(N)NCCCC[C@H](N)C(=O)O; X37 = Cc1ccc(C(=O)CCC(=O)*)cc1; X39 = O=C(C1CCC(c2ccccc2)CC1)*; X8 = O=C(c1ccc(N2CCOCC2)nc1)*; Suc = O=C(CCC(=O)[*:2])[*:1]; X25 = COc1cc(CCC(=O)*)ccc1O; X31 = Cc1ccc(OCCCC(=O)*)cc1; X12 = O=C(CCCc1ccc(F)cc1)*; X10 = Nc1cccc(CCC(=O)*)c1; X29 = Nc1ccc(CCC(=O)*)cc1; X30 = O=C(CCc1cccc(O)c1)*; X35 = Nc1ccc(CCC(=O)*)cn1; Morpholide = C1CN(*)CCO1; X26 = O=C1CCCN1CCC(=O)*; Pentanoyl = CCCCC(=O)*; X32 = O=C(CCN1CCOCC1)*

Legend:
[1] = target: PCSK9 (Homo sapiens, UniProt Q8NBP7); experiment: PCSK9/EGF(A) TR-FRET binding assay
PCSK9, sequence (Q8NBP7 153-692): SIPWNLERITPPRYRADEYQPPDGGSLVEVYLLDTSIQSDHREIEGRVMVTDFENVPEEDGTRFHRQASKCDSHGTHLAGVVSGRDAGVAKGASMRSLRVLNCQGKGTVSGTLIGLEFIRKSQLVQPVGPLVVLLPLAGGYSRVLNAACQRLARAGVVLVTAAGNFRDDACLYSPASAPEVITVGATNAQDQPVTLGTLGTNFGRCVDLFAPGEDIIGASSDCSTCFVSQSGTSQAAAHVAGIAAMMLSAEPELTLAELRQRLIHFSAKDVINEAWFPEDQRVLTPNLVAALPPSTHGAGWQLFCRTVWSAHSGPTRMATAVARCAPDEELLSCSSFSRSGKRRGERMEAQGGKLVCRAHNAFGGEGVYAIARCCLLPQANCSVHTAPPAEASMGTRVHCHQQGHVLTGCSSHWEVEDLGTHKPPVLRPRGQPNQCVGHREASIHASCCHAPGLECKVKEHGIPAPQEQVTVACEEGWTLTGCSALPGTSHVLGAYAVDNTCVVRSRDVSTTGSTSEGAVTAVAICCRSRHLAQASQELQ
PCSK9, sequence (Q8NBP7 31-152 partner limits assumed): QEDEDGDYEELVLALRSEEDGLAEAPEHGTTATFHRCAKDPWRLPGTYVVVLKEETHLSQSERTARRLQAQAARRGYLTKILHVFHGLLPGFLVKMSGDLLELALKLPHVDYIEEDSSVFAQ

[2] = target: T1, PCSK9Δhelix (Homo sapiens, UniProt Q8NBP7); experiment: PCSK9Δhelix/Ab20 TR-FRET binding assay; conditions: Table 8E, additional compounds
T1 construct: Human PCSK9 construct M1-Q692 with an engineered TEV site (residue deletion Y166, R167); made in house; host or cells: CHO
T1 sequence (Q8NBP7 with tags, fused parts or gaps limits assumed): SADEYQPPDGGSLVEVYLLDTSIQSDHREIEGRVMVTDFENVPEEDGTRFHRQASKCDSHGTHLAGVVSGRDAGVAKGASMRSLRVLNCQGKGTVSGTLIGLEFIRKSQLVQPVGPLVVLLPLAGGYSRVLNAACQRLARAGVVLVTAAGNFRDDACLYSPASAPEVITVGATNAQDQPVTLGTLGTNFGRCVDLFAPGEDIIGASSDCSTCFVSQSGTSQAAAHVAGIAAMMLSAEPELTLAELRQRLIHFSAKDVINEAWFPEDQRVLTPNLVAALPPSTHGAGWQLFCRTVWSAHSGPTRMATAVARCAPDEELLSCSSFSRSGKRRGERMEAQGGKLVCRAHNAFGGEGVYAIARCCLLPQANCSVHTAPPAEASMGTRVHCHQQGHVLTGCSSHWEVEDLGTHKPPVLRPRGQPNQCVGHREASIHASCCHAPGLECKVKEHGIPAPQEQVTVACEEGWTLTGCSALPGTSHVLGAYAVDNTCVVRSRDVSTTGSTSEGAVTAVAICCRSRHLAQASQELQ
T1 sequence (Q8NBP7 31-152 partner limits assumed): as the sequence (Q8NBP7 31-152 partner limits assumed) above

[3] = TR-FRET, Table 8E, additional compounds, read-out: PCSK9/EGF(A) IC50
[4] = TR-FRET, read-out: PCSK9Δhelix/Ab20 IC50

Row | SMILES | IC50 [1, 3] [µM] | IC50 [2, 4] [nM] | IC50 ([1]; PCSK9/EGF(A) IC50, TR-FRET, Table 8E, additional compounds) [µM] | IC50 ([2]; PCSK9Δhelix/Ab20 IC50, TR-FRET) [nM] | IC50 [1] [µM]
1 | CC[C@H](C)[C@H](NC(=O)[C@H](CCCNC(=N)N)NC(=O)[C@@H](NC(=O)[C@H](CC(C)C)NC(=O)[C@H](CC(N)=O)NC(=O)[C@H](Cc1c[nH]c2ccccc12)NC(=O)CCC(=O)c1ccc(C)cc1)C(C)C)C(=O)NCC(=O)N[C@@H](CC(C)C)C(=O)N[C@H](C(=O)N[C@@H](CCCNC(=N)N)C(N)=O)[C@@H](C)O [Compound 165] (X37-WNLVRIGLTR-NH2) | ≥ 50 | 18000 | – | – | –
2 | CC[C@H](C)[C@H](NC(=O)[C@H](CCCCNC(=N)N)NC(=O)[C@@H](NC(=O)[C@H](CC(C)C)NC(=O)[C@H](CC(N)=O)NC(=O)[C@H](Cc1c[nH]c2ccccc12)NC(=O)CCc1cccc(N)c1)C(C)C)C(=O)NCC(=O)N[C@@H](CC(C)C)C(=O)N[C@@H](CC(C)C)C(=O)N[C@@H](CCCNC(=N)N)C(N)=O [Compound 215] (X10-WNLV[hArg]IGLLR-NH2) | 7 | 480 | – | – | –
3 | CC[C@H](C)[C@H](NC(=O)[C@H](CCCNC(=N)N)NC(=O)[C@@H](NC(=O)[C@H](CC(C)C)NC(=O)[C@H](CC(N)=O)NC(=O)[C@H](Cc1c[nH]c2ccccc12)NC(=O)CCc1ccc(N)cc1)C(C)C)C(=O)NCC(=O)N[C@@H](CC(C)C)C(=O)N[C@H](C(=O)N[C@@H](CCCNC(=N)N)C(N)=O)[C@@H](C)O [Compound 161] (X29-WNLVRIGLTR-NH2) | ≥ 50 | 5000 | – | – | –
4 | CCCCC(=O)N[C@@H](Cc1c[nH]c2ccccc12)C(=O)N[C@@H](CC(N)=O)C(=O)N[C@@H](CC(C)C)C(=O)N[C@H](C(=O)N[C@@H](CCCNC(=N)N)C(=O)N[C@H](C(=O)NCC(=O)N[C@@H](CC(C)C)C(=O)N[C@@H](CO)C(=O)N[C@@H](CCCNC(=N)N)C(N)=O)[C@@H](C)CC)C(C)C [Compound 181] (Pentanoyl-WNLVRIGLSR-NH2) | ≥ 50 | 8900 | – | – | –
5 | CC[C@H](C)[C@H](NC(=O)[C@H](CCCNC(=N)N)NC(=O)[C@@H](NC(=O)[C@H](CC(C)C)NC(=O)[C@H](CC(N)=O)NC(=O)[C@H](Cc1c[nH]c2ccccc12)NC(=O)c1ccc(N2CCOCC2)nc1)C(C)C)C(=O)NCC(=O)N[C@@H](CC(C)C)C(=O)N[C@H](C(=O)N[C@@H](CCCNC(=N)N)C(N)=O)[C@@H](C)O [Compound 172] (X8-WNLVRIGLTR-NH2) | ≥ 50 | 8500 | – | – | –
6 | CC[C@H](C)[C@H](NC(=O)[C@H](CCCCNC(=N)N)NC(=O)[C@@H](NC(=O)[C@H](CC(C)C)NC(=O)[C@H](CC(N)=O)NC(=O)[C@H](Cc1c[nH]c2ccccc12)NC(=O)CCc1cccc(O)c1)C(C)C)C(=O)NCC(=O)N[C@@H](CC(C)C)C(=O)N[C@@H](CC(C)C)C(=O)N[C@@H](CCCNC(=N)N)C(N)=O [Compound 217] (X30-WNLV[hArg]IGLLR-NH2) | 4.1 | 390 | – | – | –
7 | CC[C@H](C)[C@H](NC(=O)[C@H](CCCNC(=N)N)NC(=O)[C@@H](NC(=O)[C@H](CC(C)C)NC(=O)[C@H](CC(N)=O)NC(=O)[C@H](Cc1c[nH]c2ccccc12)NC(=O)CCc1ccc(O)cc1)C(C)C)C(=O)NCC(=O)N[C@@H](CC(C)C)C(=O)N[C@H](C(=O)N[C@@H](CCCNC(=N)N)C(N)=O)[C@@H](C)O [Compound 170] (Desaminotyrosyl-WNLVRIGLTR-NH2) | ≥ 50 | 3100 | – | – | –
8 | CC[C@H](C)[C@H](NC(=O)[C@H](CCCCNC(=N)N)NC(=O)[C@@H](NC(=O)[C@H](CC(C)C)NC(=O)[C@H](CC(N)=O)NC(=O)[C@H](Cc1c[nH]c2ccccc12)NC(=O)CCc1ccc(N)nc1)C(C)C)C(=O)NCC(=O)N[C@@H](CC(C)C)C(=O)N[C@@H](CC(C)C)C(=O)N[C@@H](CCCNC(=N)N)C(N)=O [Compound 216] (X35-WNLV[hArg]IGLLR-NH2) | 6 | 300 | – | – | –
9 | CC[C@H](C)[C@H](NC(=O)[C@H](CCCNC(=N)N)NC(=O)[C@@H](NC(=O)[C@H](CC(C)C)NC(=O)[C@H](CC(N)=O)NC(=O)[C@H](Cc1c[nH]c2ccccc12)NC(=O)CCc1ccc(OC)cc1)C(C)C)C(=O)NCC(=O)N[C@@H](CC(C)C)C(=O)N[C@H](C(=O)N[C@@H](CCCNC(=N)N)C(N)=O)[C@@H](C)O [Compound 166] ({Propanoyl(3-(4-MeO-Ph))}-WNLVRIGLTR-NH2) | ≥ 50 | 5900 | – | – | –
10 | CC[C@H](C)[C@H](NC(=O)[C@H](CCCNC(=N)N)NC(=O)[C@@H](NC(=O)[C@H](CC(C)C)NC(=O)[C@H](CC(N)=O)NC(=O)[C@H](Cc1c[nH]c2ccccc12)NC(=O)c1ccc(-c2ccccc2)cc1)C(C)C)C(=O)NCC(=O)N[C@@H](CC(C)C)C(=O)N[C@@H](CC(C)C)C(=O)N[C@@H](CCCNC(=N)N)C(N)=O [Compound 145] ({Benzoyl(4-Ph)}-WNLVRIGLLR-NH2) | – | – | 7.3 | 2200 | –
11 | CC[C@H](C)[C@H](NC(=O)[C@H](CCCCNC(=N)N)NC(=O)[C@@H](NC(=O)[C@H](CC(C)C)NC(=O)[C@H](CC(N)=O)NC(=O)[C@H](Cc1c[nH]c2ccccc12)NC(=O)CCCOc1ccc(C)cc1)C(C)C)C(=O)NCC(=O)N[C@@H](CC(C)C)C(=O)N[C@@H](CC(C)C)C(=O)N[C@@H](CCCNC(=N)N)C(N)=O [Compound 207] (X31-WNLV[hArg]IGLLR-NH2) | 1.3 | 320 | – | – | –
12 | CC[C@H](C)[C@H](NC(=O)[C@H](CCCCNC(=N)N)NC(=O)[C@@H](NC(=O)[C@H](CC(C)C)NC(=O)[C@H](CC(N)=O)NC(=O)[C@H](Cc1c[nH]c2ccccc12)NC(=O)[C@H]1C[C@@H]1c1cccnc1)C(C)C)C(=O)NCC(=O)N[C@@H](CC(C)C)C(=O)N[C@@H](CC(C)C)C(=O)N[C@@H](CCCNC(=N)N)C(N)=O [Compound 225] (X17-WNLV[hArg]IGLLR-NH2) | 27 | 1800 | – | – | –
13 | CC[C@H](C)[C@H](NC(=O)[C@H](CCCNC(=N)N)NC(=O)[C@@H](NC(=O)[C@H](CC(C)C)NC(=O)[C@H](CC(N)=O)NC(=O)[C@H](Cc1c[nH]c2ccccc12)NC(=O)C1CCC(c2ccccc2)CC1)C(C)C)C(=O)NCC(=O)N[C@@H](CC(C)C)C(=O)N[C@@H](CC(C)C)C(=O)N[C@@H](CCCNC(=N)N)C(N)=O (stereo partly drawn) [Compound 147] (X39-WNLVRIGLLR-NH2) | 2.6 | 410 | – | – | –
14 | CC[C@H](C)[C@H](NC(=O)[C@H](CCCNC(=N)N)NC(=O)[C@@H](NC(=O)[C@H](CC(C)C)NC(=O)[C@H](CC(N)=O)NC(=O)[C@H](Cc1c[nH]c2ccccc12)NC(=O)CCCCc1ccccc1)C(C)C)C(=O)NCC(=O)N[C@@H](CC(C)C)C(=O)N[C@@H](CC(C)C)C(=O)N[C@@H](CCCNC(=N)N)C(N)=O [Compound 146] ({Pentanoyl(5-Ph)}-WNLVRIGLLR-NH2) | 11 | 1700 | – | – | –
15 | CC[C@H](C)[C@H](NC(=O)[C@H](CCCNC(=N)N)NC(=O)[C@@H](NC(=O)[C@H](CC(C)C)NC(=O)[C@H](CC(N)=O)NC(=O)[C@H](Cc1c[nH]c2ccccc12)NC(=O)CCC(=O)N1CCOCC1)C(C)C)C(=O)NCC(=O)N[C@@H](CC(C)C)C(=O)N[C@H](C(=O)N[C@@H](CCCNC(=N)N)C(N)=O)[C@@H](C)O [Compound 167] ({Morpholide-Suc}-WNLVRIGLTR-NH2) | ≥ 50 | 43000 | – | – | –
16 | CC[C@H](C)[C@H](NC(=O)[C@H](CCCNC(=N)N)NC(=O)[C@@H](NC(=O)[C@H](CC(C)C)NC(=O)[C@H](CC(N)=O)NC(=O)[C@H](Cc1c[nH]c2ccccc12)NC(=O)CCN1CCOCC1)C(C)C)C(=O)NCC(=O)N[C@@H](CC(C)C)C(=O)N[C@@H](CC(C)C)C(=O)N[C@@H](CCCNC(=N)N)C(N)=O [Compound 137] (X32-WNLVRIGLLR-NH2) | ≥ 50 | 6700 | – | – | –
17 | CC[C@H](C)[C@H](NC(=O)[C@H](CCCCNC(=N)N)NC(=O)[C@@H](NC(=O)[C@H](CC(C)C)NC(=O)[C@H](CC(N)=O)NC(=O)[C@H](Cc1c[nH]c2ccccc12)NC(=O)CCCc1ccc(F)cc1)C(C)C)C(=O)NCC(=O)N[C@@H](CC(C)C)C(=O)N[C@@H](CC(C)C)C(=O)N[C@@H](CCCNC(=N)N)C(N)=O [Compound 196] (X12-WNLV[hArg]IGLLR-NH2) | 7.3 | 1400 | – | – | –
18 | CC[C@H](C)[C@H](NC(=O)[C@H](CCCNC(=N)N)NC(=O)[C@@H](NC(=O)[C@H](CC(C)C)NC(=O)[C@H](CC(N)=O)NC(=O)[C@H](Cc1c[nH]c2ccccc12)NC(=O)CCN1CCCC1=O)C(C)C)C(=O)NCC(=O)N[C@@H](CC(C)C)C(=O)N[C@@H](CC(C)C)C(=O)N[C@@H](CCCNC(=N)N)C(N)=O [Compound 128] (X26-WNLVRIGLLR-NH2) | ≥ 50 | 7500 | – | – | –
19 | CC[C@H](C)[C@H](NC(=O)[C@H](CCCCNC(=N)N)NC(=O)[C@@H](NC(=O)[C@H](CC(C)C)NC(=O)[C@H](CC(N)=O)NC(=O)[C@H](Cc1c[nH]c2ccccc12)NC(=O)CCc1ccc(O)c(OC)c1)C(C)C)C(=O)NCC(=O)N[C@@H](CC(C)C)C(=O)N[C@@H](CC(C)C)C(=O)N[C@@H](CCCNC(=N)N)C(N)=O [Compound 213] (X25-WNLV[hArg]IGLLR-NH2) | 3.8 | 200 | – | – | –
20 | CC[C@H](C)[C@H](NC(=O)[C@H](CCCCNC(=N)N)NC(=O)[C@@H](NC(=O)[C@H](CC(C)C)NC(=O)[C@H](CC(N)=O)NC(=O)[C@H](Cc1c[nH]c2ccccc12)NC(=O)CCc1ccc(O)c(OC)c1)C(C)C)C(=O)NCC(=O)N[C@@H](CCC(N)=O)C(=O)N[C@@H](CCCNC(=N)N)C(N)=O [Compound 239] (X25-WNLV[hArg]IGQR-NH2) | – | – | – | 1200 | 32
21 | CC[C@H](C)[C@H](NC(=O)[C@H](CCCCNC(=N)N)NC(=O)[C@@H](NC(=O)[C@H](CC(C)C)NC(=O)[C@H](CC(N)=O)NC(=O)[C@H](Cc1c[nH]c2ccccc12)NC(=O)c1ccc(N2CCOCC2)nc1)C(C)C)C(=O)NCC(=O)N[C@@H](CC(C)C)C(=O)N[C@@H](CC(C)C)C(=O)N[C@@H](CCCNC(=N)N)C(N)=O [Compound 219] (X8-WNLV[hArg]IGLLR-NH2) | 9.9 | 680 | – | – | –
